From patent US11286268B1, “EIF4E-inhibiting compounds and methods” (EFFECTOR THERAPEUTICS, INC., priority 2019, dated 2022)
Read-outs that look alike come from different tables or passages of the source.

Molecular target: recombinant eIF4E (Homo sapiens (Human), UniProt P06730)
Test: Fluorescence polarization competition assay for eIF4E binding potency
Procedure, shortened: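 FP readout; IC50 fit from 8-point, 3-fold series. 75 nM eIF4E + 20 nM ATTO-550-labelled m7GDP probe, Tris pH 7.5/NaCl/DTT/Tween buffer, 1% DMSO final. 30 min RT equilibration, light-protected.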

[1] = fluorescence polarization competition, 75 nM recombinant eIF4E, 20 nM EDA-m7GDP-ATTO-550, IC50 class, read-out: elF4E FP
[2] = inhibition of eIF4E/EDA-m7GDP-ATTO-550 binding by 50%, Table 4B calculated values, read-out: IC50

recombinant eIF4E, sequence (P06730 whole entry): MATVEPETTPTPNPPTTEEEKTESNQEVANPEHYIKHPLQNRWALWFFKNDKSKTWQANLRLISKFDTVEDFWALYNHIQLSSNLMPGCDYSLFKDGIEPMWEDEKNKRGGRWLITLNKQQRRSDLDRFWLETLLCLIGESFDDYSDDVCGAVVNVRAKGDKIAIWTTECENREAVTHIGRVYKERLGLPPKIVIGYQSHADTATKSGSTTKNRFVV

Compound	IC50 [1] [nM]	IC50 [2] [nM]
Cc1nc2ccc(CCN(C)C)c(C#N)c2c(=O)n1CCOc1ccc(Cl)cc1-c1ccc(C(F)F)c2c(C(=O)O)csc12 [compound 577]	< 50	39.4
Cc1nc2ccc(CCN(C)C)c(C#N)c2c(=O)n1CCOc1ccc(Cl)cc1-c1ccc(C(F)(F)F)c2c(C(=O)O)csc12 [compound 578]	< 50	32
Cc1cc(-c2cc(Cl)ccc2OCCn2c(C)nc3cc(OC(F)F)cc(C#N)c3c2=O)c2scc(C(=O)O)c2n1 [compound 579]	< 50	30.2
Cc1cc(-c2cc(Cl)ccc2OCCn2c(C)nc3cc(OC(F)F)cc(C#N)c3c2=O)c2scc(C(=O)NS(C)(=O)=O)c2n1 [compound 580]	< 50	24.2
Cc1cc(-c2cc(Cl)ccc2OCCn2c(C)nc3cc(Cl)c(Cl)c(C#N)c3c2=O)c2scc(C(=O)O)c2n1 [compound 582]	< 50	12.7
Cc1cc(-c2cc(Cl)ccc2OCCn2c(C)nc3ccc(OC(F)(F)F)c(C#N)c3c2=O)c2scc(C(=O)O)c2n1 [compound 583]	< 50	15.9
Cc1cc(-c2cc(Cl)ccc2OCCn2c(C)nc3ccc(CCN(C)C)c(C#N)c3c2=O)c2scc(C(=O)O)c2n1 [compound 584]	< 50	23.5
Cc1cc(-c2cc(Cl)ccc2OCCn2c(C)nc3cc(OC(F)F)c(F)c(C#N)c3c2=O)c2scc(C(=O)O)c2n1 [compound 585]	< 50	29.6
Cc1cc(-c2cc(Cl)ccc2OCCn2c(C)nc3cc(Cl)c(C(F)F)c(C#N)c3c2=O)c2scc(C(=O)O)c2n1 [compound 586]	< 50	50
Cc1cc(-c2cc(Cl)ccc2OCCn2c(C)nc3c(F)cc(C(F)F)c(C#N)c3c2=O)c2scc(C(=O)O)c2n1 [compound 587]	< 50	25.5
Cc1cc(-c2cc(Cl)ccc2OCCn2c(C)nc3c(F)cc(Cl)c(C#N)c3c2=O)c2scc(C(=O)O)c2n1 [compound 588]	< 50	49.3
Cc1cc(-c2cc(Cl)ccc2OCCn2c(C)nc3c(F)c(C(F)(F)F)cc(C#N)c3c2=O)c2scc(C(=O)O)c2n1 [compound 589]	< 50	4.45
Cc1nc2cc(C(F)(F)F)cc(C#N)c2c(=O)n1CCOc1ccc(Cl)cc1-c1cn(C)c(=O)c2c(C(=O)O)csc12 [compound 590]	< 50	2.26
CCc1sc2c(-c3cc(Cl)ccc3OCCn3c(C)nc4cc(C(F)(F)F)cc(C#N)c4c3=O)ccnc2c1C(=O)O [compound 591]	< 50	44.9
Cc1cc(-c2cc(Cl)ccc2OCCn2c(C)nc3cc(OC(F)F)c(CCN(C)C)c(C#N)c3c2=O)c2scc(C(=O)O)c2n1 [compound 592]	< 50	10.3
Cc1cc(-c2cc(Cl)ccc2OCCn2c(C)nc3c(F)cc(C(F)F)c(C#N)c3c2=O)c2scc(C(=O)NS(=O)(=O)C(F)(F)F)c2n1 [compound 593]	< 50	32.9
Cc1cc(-c2cc(Cl)ccc2OCCn2c(C)nc3c(F)cc(C(F)F)c(C#N)c3c2=O)c2scc(C(=O)NC(=O)N(C)C)c2n1 [compound 594]	> 1000	1350
C=C1c2c(C#N)cc(C(F)(F)F)cc2N=C(C)N1CCOc1ccc(Cl)cc1-c1cc(CCO)nc2c(C(=O)O)csc12 [compound 595]	< 50	24.8
Cc1cc(-c2cc(Cl)ccc2OCCn2c(C)nc3cnc(C#N)cc3c2=O)c2scc(C(=O)O)c2n1 [compound 596]	< 50	37.7
Cc1cc(-c2cc(Cl)ccc2OCCn2c(C)nc3cncc(C#N)c3c2=O)c2scc(C(=O)O)c2n1 [compound 597]	< 50	46.8

Compound	IC50 [1] [nM]	IC50 [2] [nM]
Cc1cc(-c2cc(Cl)ccc2OCCn2c(C)nc3cnc(C#N)cc3c2=O)c2scc(C(=O)NS(C)(=O)=O)c2n1 [compound 598]	50 to 1000	57.2
Cc1cc(-c2cc(Cl)ccc2C#CCn2c(C)nc3cnc(C#N)cc3c2=O)c2scc(C(=O)O)c2n1 [compound 599]	50 to 1000	61.6
Cc1cc(-c2cc(Cl)ccc2OCCn2c(C)nc3cncc(C#N)c3c2=O)c2scc(C(=O)NS(C)(=O)=O)c2n1 [compound 600]	< 50	14.2
Cc1cc(-c2cc(Cl)ccc2C#CCn2c(C)nc3cncc(C#N)c3c2=O)c2scc(C(=O)O)c2n1 [compound 601]	50 to 1000	52
Cc1cc(-c2cc(Cl)ccc2OCCn2c(C)nc3cnc(OC(F)F)c(C#N)c3c2=O)c2scc(C(=O)O)c2n1 [compound 602]	< 50	10.2
Cc1nc(N2CCN(C)C3CC32)c(C#N)c2c(=O)n(CCOc3ccc(Cl)cc3-c3ccnc4c(C(=O)O)csc34)c(C)nc12 (stereo not drawn) [compound 603]	< 50	11.7
Cc1cc(-c2cc(Cl)ccc2OCCn2c(C)nc3c(OC(F)F)ncc(C#N)c3c2=O)c2scc(C(=O)O)c2n1 [compound 604]	50 to 1000	70.7
Cc1cc(-c2cc(Cl)ccc2OCCn2c(C)nc3cc(CCCN(C)C)c(Cl)c(C#N)c3c2=O)c2scc(C(=O)O)c2n1 [compound 606]	< 50	4.12
Cc1cc(-c2cc(Cl)ccc2OCCn2c(C)nc3cc(CCN(C)C)c(OC(F)F)c(C#N)c3c2=O)c2scc(C(=O)O)c2n1 [compound 607]	< 50	5.5
Cc1cc(-c2cc(Cl)ccc2OCCn2c(C)nc3c(F)cc(CCN(C)C)c(C#N)c3c2=O)c2scc(C(=O)O)c2n1 [compound 608]	< 50	18.6
Cc1cc(-c2cc(Cl)ccc2OCCn2c(C)nc3cc(Cl)c(CCN(C)C)c(C#N)c3c2=O)c2scc(C(=O)O)c2n1 [compound 609]	< 50	33.1
Cc1cc(-c2cc(Cl)ccc2OCCn2c(C)nc3cc(C(F)(F)F)c(CCN(C)C)c(C#N)c3c2=O)c2scc(C(=O)O)c2n1 [compound 610]	< 50	13.9
Cc1cc(-c2cc(Cl)ccc2OCCn2c(C)nc3cc4c(c(C#N)c3c2=O)CC(N(C)C)C4)c2scc(C(=O)O)c2n1 (stereo not drawn) [compound 611]	< 50	7.76
Cc1cc(-c2cc(Cl)ccc2OCCn2c(C)nc3cc4c(c(C#N)c3c2=O)C(N(C)C)CC4)c2scc(C(=O)O)c2n1 (stereo not drawn) [compound 612]	< 50	43.8
Cc1cc(-c2cc(Cl)ccc2OCCn2c(C)nc3cc4c(c(C#N)c3c2=O)CCC4N(C)C)c2scc(C(=O)O)c2n1 (stereo not drawn) [compound 613]	< 50	7.89
Cc1nc2cc(C(F)(F)F)c(CN3CCN(C)CC3)c(C#N)c2c(=O)n1CC#Cc1ccc(Cl)cc1-c1ccnc2c(C(=O)O)csc12 [compound 615]	< 50	16.3
Cc1cc(-c2cc(Cl)ccc2C#CCn2c(C)nc3cc(C(F)(F)F)c(CN4CCN(C)CC4)c(C#N)c3c2=O)c2scc(C(=O)O)c2n1 [compound 616]	< 50	2.45
Cc1nc2cc(C(F)(F)F)c(CN3CCOCC3)c(C#N)c2c(=O)n1CC#Cc1ccc(Cl)cc1-c1ccnc2c(C(=O)O)csc12 [compound 617]	< 50	39.7
Cc1cc(-c2cc(Cl)ccc2OCCn2c(C)nc3cc(CN(C)C(C)(C)C)c(OC(F)F)c(C#N)c3c2=O)c2scc(C(=O)O)c2n1 [compound 618]	< 50	2.98
